Results on five compounds are retold here after patent publication US20250380696A1, “METHOD FOR CONTROLLING UNDESIRED PLANTS AND PROMOTING GROWTH OF USEFUL PLANTS” (ISHIHARA SANGYO KAISHA, LTD., priority 2022, published 2025).

Where two headings read alike, the source gives them in different places.

The test concerns Italian ryegrass (Lolium multiflorum). Nature of the test: (16) Herbicidal effect test (comparative test), pot, spray at 2.5 to 3.0 leaf stage. In kind it is in vivo. Conditions: Lolium multiflorum, read-out: Growth inhibition rate (%) Measured value. The source says: [formula] • X: growth inhibition rate when treated with α (g/ha) of compound A, • Y: growth inhibition rate when treated with β (g/ha) of compound B, • E: growth inhibition rate expected when treated with α (g/ha) of compound A and β (g/ha) of compound B (expected value).
Upland soil was put in a 1/1,000,000 hectare pot, and seeds of Italian ryegrass (Lolium multiflorum) were sown. When Italian ryegrass reached 2.5 to 3.0 leaf stage, a water-based suspension containing tiafenacil as the active ingredient, prepared by a conventional method for preparing a water-based suspension, a water-based suspension containing saflufenacil as the active ingredient (tradename: Sharpen, manufactured by BASF), a wettable powder containing fomesafen as the active ingredient, prepared by a conventional method for preparing a wettable powder, an emulsifiable concentrate containing fluthiacet-methyl as the active ingredient (tradename: Attackshot emulsifiable concentrate, manufactured by MARUWA Biochemical Co., Ltd.), a dry flowable containing carfentrazone-ethyl as the active ingredient (tradename: Task DF, manufactured by ISHIHARA SANGYO KAISHA, LTD.) or a water-based suspension containing pyraflufen-ethyl as the active ingredient (tradename: ECOPART flowable, manufactured by NIHON NOHYAKU CO., LTD.), and an emulsifiable concentrate containing S-metolachlor as the active ingredient (tradename: Dual Gold, manufactured by Syngenta) or a wettable powder containing metribuzin as the active ingredient (tradename: SENCOR wettable powder, manufactured by Bayer Crop Science), were diluted with water (in an amount corresponding to 200 liter per hectare) containing 0.5 vol % of an agricultural spreader (tradename: Destiny HC, manufactured by Winfield Solutions, LLC.) and sprayed by a small spray gun (model: W-101-132G, manufactured by ANEST IWATA Corporation). On the 4th day after spraying, the state of growth of the Italian ryegrass was visually observed, and the growth inhibition rate (%) was obtained in accordance with the evaluation standards described in the above (1) herbicidal effect test, and the results are shown in Table 16. Further, the expected value of the growth inhibition rate (%) was calculated in accordance with the Colby's formula described in the above (1) herbicidal effect test, and the results are also shown in Table 16.

[1] abbreviates: Dose 12.5 g/ha, 4th day after spraying.

As for `CCOC(=O)C(Cl)Cc1cc(-n2nc(C)n(C(F)F)c2=O)c(F)cc1Cl` (centres unmarked) [carfentrazone-ethyl], the inhibition at 12.5 g/ha came out at 12%. For the compound `CC(C)N(C)S(=O)(=O)NC(=O)c1cc(-n2c(=O)cc(C(F)(F)F)n(C)c2=O)c(F)cc1Cl` [saflufenacil], the inhibition at 12.5 g/ha under setting [1] is 33%.

In the case of `COC(=O)CSc1cc(/N=c2\sc(=O)n3n2CCCC3)c(F)cc1Cl` [fluthiacet-methyl], the inhibition at 12.5 g/ha under setting [1] came out at 12%. Regarding `CCOC(=O)COc1cc(-c2nn(C)c(OC(F)F)c2Cl)c(F)cc1Cl` [pyraflufen-ethyl], the inhibition at 12.5 g/ha stood at 25%. `CS(=O)(=O)NC(=O)c1cc(Oc2ccc(C(F)(F)F)cc2Cl)ccc1[N+](=O)[O-]` [fomesafen]: under setting [1], the inhibition at 12.5 g/ha was 8%.

As usually defined, the inhibition is how much of the control response was suppressed.
